Assay results published in the supplement of paper PMC8741786.
≈ marks a conversion by molar mass, not a printed value.

System: Neisseria subflava/flavescens/perflava
Test: minimum inhibitory concentration (ETEST)
Conditions: population: general population, antibiotic use in previous 6 months: No
Procedure: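 Oropharyngeal Neisseria isolates from MSM and employees in Belgium were identified to species by MALDI-TOF MS. MICs of azithromycin, ceftriaxone and ciprofloxacin were determined by ETEST on GC agar after 24 h at 36.5 °C and 5-7% CO2, in mg/L. Values beyond the strip range are reported as >256 (azithromycin) or <0.016 (ceftriaxone); isolates that did not grow are NA.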

O=C(O)c1cn(C2CC2)c2cc(N3CCNCC3)c(F)cc2c1=O [ciprofloxacin]
Conditions | minimum inhibitory concentration [µg/mL]
isolate id (sample isolate): Co000767_7 | 0.38 (≈ 1.15 µM)
isolate id (sample isolate): Co000768_1 | 0.006 (≈ 0.0181 µM)
isolate id (sample isolate): Co000768_2 | 0.008 (≈ 0.0241 µM)
isolate id (sample isolate): Co000769_1 | 0.5 (≈ 1.51 µM)
isolate id (sample isolate): Co000769_2 | 0.008 (≈ 0.0241 µM)
isolate id (sample isolate): Co000769_4 | 0.5 (≈ 1.51 µM)
isolate id (sample isolate): Co000770_2 | 0.25 (≈ 0.754 µM)
isolate id (sample isolate): Co000770_4 | 0.5 (≈ 1.51 µM)
isolate id (sample isolate): Co000770_6 | 0.047 (≈ 0.142 µM)
isolate id (sample isolate): Co000771_2 | 1 (≈ 3.02 µM)
isolate id (sample isolate): Co000771_3 | 0.006 (≈ 0.0181 µM)
isolate id (sample isolate): Co000771_5 | 0.016 (≈ 0.0483 µM)
isolate id (sample isolate): Co000772_1 | 0.023 (≈ 0.0694 µM)
isolate id (sample isolate): Co000772_2 | 0.016 (≈ 0.0483 µM)
isolate id (sample isolate): Co000772_4 | 0.016 (≈ 0.0483 µM)
isolate id (sample isolate): Co000772_5 | 0.012 (≈ 0.0362 µM)
isolate id (sample isolate): Co000772_6 | 0.008 (≈ 0.0241 µM)
isolate id (sample isolate): Co000773_1 | 0.38 (≈ 1.15 µM)
isolate id (sample isolate): Co000773_2 | 0.38 (≈ 1.15 µM)
isolate id (sample isolate): Co000774_2 | 0.047 (≈ 0.142 µM)
isolate id (sample isolate): Co000775_1 | 1 (≈ 3.02 µM)
isolate id (sample isolate): Co000775_2 | 0.016 (≈ 0.0483 µM)
isolate id (sample isolate): Co000775_3 | 0.25 (≈ 0.754 µM)
isolate id (sample isolate): Co000776_2 | 0.047 (≈ 0.142 µM)
isolate id (sample isolate): Co000776_3 | 0.047 (≈ 0.142 µM)
isolate id (sample isolate): Co000777_1 | 1 (≈ 3.02 µM)
isolate id (sample isolate): Co000777_2 | 0.5 (≈ 1.51 µM)
isolate id (sample isolate): Co000777_4 | 2 (≈ 6.04 µM)
isolate id (sample isolate): Co000778_1 | 0.012 (≈ 0.0362 µM)
isolate id (sample isolate): Co000778_2 | > 32
isolate id (sample isolate): Co000778_3 | 0.012 (≈ 0.0362 µM)
isolate id (sample isolate): Co000780_4 | 0.75 (≈ 2.26 µM)
isolate id (sample isolate): Co000781_1 | 0.5 (≈ 1.51 µM)
isolate id (sample isolate): Co000781_3 | 2 (≈ 6.04 µM)
isolate id (sample isolate): Co000781_4 | 0.75 (≈ 2.26 µM)
isolate id (sample isolate): Co000782_2 | 0.016 (≈ 0.0483 µM)
isolate id (sample isolate): Co000782_3 | 0.012 (≈ 0.0362 µM)
isolate id (sample isolate): Co000782_4 | 0.023 (≈ 0.0694 µM)
isolate id (sample isolate): Co000783_1 | 0.064 (≈ 0.193 µM)
isolate id (sample isolate): Co000783_2 | 0.094 (≈ 0.284 µM)
isolate id (sample isolate): Co000783_5 | 0.012 (≈ 0.0362 µM)
isolate id (sample isolate): Co000784_1 | 0.023 (≈ 0.0694 µM)
isolate id (sample isolate): Co000784_2 | 0.75 (≈ 2.26 µM)
isolate id (sample isolate): Co000784_5 | 0.023 (≈ 0.0694 µM)
isolate id (sample isolate): Co000785_1 | 0.016 (≈ 0.0483 µM)
isolate id (sample isolate): Co000785_2 | 0.25 (≈ 0.754 µM)
isolate id (sample isolate): Co000785_3 | 0.125 (≈ 0.377 µM)
isolate id (sample isolate): Co000785_4 | 0.012 (≈ 0.0362 µM)
isolate id (sample isolate): Co000786_1 | 0.047 (≈ 0.142 µM)
isolate id (sample isolate): Co000786_2 | 0.016 (≈ 0.0483 µM)
isolate id (sample isolate): Co000787_1 | > 32
isolate id (sample isolate): Co000787_2 | 0.023 (≈ 0.0694 µM)
isolate id (sample isolate): Co000787_4 | 0.023 (≈ 0.0694 µM)
isolate id (sample isolate): Co000788_2 | 0.25 (≈ 0.754 µM)
isolate id (sample isolate): Co000788_3 | 0.016 (≈ 0.0483 µM)
isolate id (sample isolate): Co000788_5 | 0.19 (≈ 0.573 µM)
isolate id (sample isolate): Co000789_1 | 0.016 (≈ 0.0483 µM)
isolate id (sample isolate): Co000790_2 | 0.006 (≈ 0.0181 µM)
isolate id (sample isolate): Co000790_4 | 0.006 (≈ 0.0181 µM)
